Values of other authors as cited in paper PMC7956819, “Peptides from the Intestinal Tract of Breast Milk-Fed Infants Have Antimicrobial and Bifidogenic Activity” (International Journal of Molecular Sciences, 2021).
Entries after “also recorded” stand apart in the source; their conditions may differ.

Conditions: function listed in the MBPDB for the identical sequence; not tested here; cited from earlier work
From the text: page 3: Ta ble S1. List of known bioactive peptides in the infant intestinal samples.

Substance	Function (known bioactive peptides in the infant intestinal samples)
DAQSAPLRVY	ACE-inhibitory
AMKPWIQPK	ACE-inhib itory
VLGPVRGPFP	ACE-inhibitory
ALKALPMHIR	Cell-proliferative
RETIESLSSSEESITEYK	Cell-proliferative
YQKFPQY	ACE-inhibitory; also recorded: Antioxidant
LLYQEPVLGPVRGPFPIIV	ACE-inhibitory
EPVLGPVRGPFP	ACE-inhibitory
AASDISLLDAQSAPLR	Antimicrobial
IYPSFQPQPLIYP	ACE-inhibitory
PVVVPPFLQPE	Antimicrobial
ALPMHIR	ACE-inhibitory; also recorded: Cell-proliferative
YQEPVLGPVRGPFPIIV	ACE-inhibitory; also recorded: Antimicrobial; also recorded: Antithrombin; also recorded: Immunomodulatory
VLPVPQKAVPYPQR	Antimicrobial
VLVLDTDYK	Antimicrobial; also recorded: DPP-IV-inhibitory
IKHQGLPQEV	Antimicrobial
SDIPNPIGSENSEK	Antimicrobial
LPQNIPPLT	DPP-IV-inhibitory
HPHPHLSF	ACE-inhibitory
PYVRYL	ACE-inhibitory; also recorded: Antimicrobial; also recorded: Antioxidant
INNQFLPYPY	DPP-I V-inhibitory
IGSENSEKTTMP	ACE-inhib itory
GLDIQKVAGT	Antimicrobial
WSVPQPK	ACE-inhibitory; also recorded: Antioxidant

Substance	Function (known bioactive peptides in the infant intestinal samples)
TKKTKLTEEEKNRL	Antimicrobial
NLHLPLPLL	ACE-inhibitory
LKPTPEGDLE	DPP-IV-inhibitory
YANPAVVRP	ACE-inhibitory
ALNEINQFYQK	ACE-inhibitory
QVVPYPQ	Antioxidant
QEPVLGPVRGPFPIIV	ACE-inhibitory
LVYPFPGPI	ACE-inhibitory
FPEVFGK	ACE-inhib itory
NLHLPLP	ACE-inhibitory
VYVEELKPTPEGDLEILLQK	Hypocholesterolemic
VYPFPGPI	PEP-inhibitory
VKEAMAPK	Antimicrobial; also recorded: Antioxidant
FFVAPFPEVFGK	ACE-inhib itory
DKIYPSFQPQPLIYP	ACE-inhibitory
LENLHLPLP	ACE-inhibitory
FSDKIAK	ACE-inhibitory; also recorded: Antimicrobial
FALPQYLK	ACE-inhibitory; also recorded: Antioxidant
VENLHLPLPLL	ACE-inhibitory
YQEPVLGPVRGPFPI	Antimicrobial
LDIQKVAGTW	ACE-inhibitory
MPFPKYPVEP	ACE-inhibitory
IQKVAGTW	ACE-inhibitory; also recorded: DPP-IV-inhibitory
LRLKKYKVPQL	Antimicrobial

Substance	Function (known bioactive peptides in the infant intestinal samples)
LKALPMH	ACE-inhibitory; also recorded: DPP-IV-inhibitory
TVYTKGRVMP	ACE-inhibitory
FQPQPLIYP	ACE-inhibitory
LYQEPVLGPVRGPFPIIV	Immunomodulatory
SPTIPFFDPQIPK	Cell-proliferative
VYPFPGPIPN	ACE-inhibitory; also recorded: Antioxidant
LTDLENLHLP	ACE-inhibitory
FVAPFPEVFG	ACE-inhib itory
ENLHLPLP	ACE-inhibitory
RELEELNVPGEIVESLSSSEESITR	Caseinophosphopeptide; also recorded: Immunomodulatory
TEDELQDKIHPF	Antimicrobial
LIVTQTMK	Cytotoxic
LLNQELLLNPTHQIYPV	Antimicrobial
IQPKTKVIPYVR	Antimicrobial
QELLLNPTHQIYPVTQPLAPVHNPISV	Antimicrobial
MAIPPKKNQDKTEIPTINT	Antimicrobial
TKVIPYVRYL	Antimicrobial
IIAEKTKIPAVF	Antimicrobial
TPEVDDEALEK	Antimicrobial; also recorded: DPP-IV-inhibitory
LKPTPEGDL	DPP-IV-inhibitory
ENLHLPLPLL	ACE-inhibitory
YLGYLEQLLR	Anxiolytic
YQEPVLGPVR	ACE-inhibitory; also recorded: Immunomodulatory
